This is an account of results in patent publication USRE40594E1, “Inhibitors of the bitter taste response” (Mount Sinai School of Medicine of New York University, priority 1998, dated 2008).

Test [1] relates to glossopharyngeal nerve responses of C57BL/6J mice. Put plainly: Glossopharyngeal nerve recording on lingual stimulation with tastants. The test is classed as in vivo. The note with it: inhibitor 0.1 mM. The protocol:
Nerve Recording. Glossopharyngeal nerve responses were recorded from male C57BL/6J mice as previously described (Ninomiya, Y., et al., 1997, Am. J. Physiol. (London) 272:R1002-RI006). Each mouse was anesthetized with intraperitoneal injection of sodium pentobarbital (40-50 mg/kg) and maintained at a surgical level of anesthesis with supplemental injections of the drug. The trachea was cannulated, and the mouse was then fixed in the supine position with a head holder to allow dissection of the glossopharyngeal nerve. The hypoglossal nerve was transected bilaterally to prevent inadvertent tongue movements. The right glossopharyngeal nerve was exposed by removal of the digastric muscle and posterior horn of the hyoid bone. The glossopharyngeal nerve was then dissected free from underlying tissues and cut near its entrance to the posterior foramen lacerum. The entire nerve was placed on a silver wire electrode for whole nerve recording. An indifferent electrode was positioned nearby in the wound. […] Whole nerve responses were integrated by using an RMS-DC converter (Hendrick, Tallahassee, Fla.) with a time constant of 0.5 s. For chemical stimulation of the circumvallate and foliate papillae, an incision was made on each side of the animal's face from the comer of the mouth to just above the angle of the jaw, the papillae were exposed, and their trenches opened via slight tension applied through a small suture sewn in the tip of the tongue. Tastant solutions were delivered to the tongue by gravity flow, and flowed over the tongue for a controlled period. The stability of each preparation was monitored by the periodic application of 0.1 M NH4Cl. A recording was considered to be stable when the 0.1 M NH4Cl response magnitudes at the beginning and end of each stimulation series deviated by no more than 15%. Only responses from stable recordings were used in the data analysis. In the analysis of whole nerve responses, the magnitudes of the integrated response at 20, 25, 30, 35. and 40 s after stimulus onset were measured and averaged to generate tonic responses: the tonic response represents the sustained nerve response to continuous tastant stimulation of taste receptor cells. The relative tonic response for each stimulus was obtained by normalization to the response from 0.1 M NH4Cl (the tonic response of NH4Cl was defined as 1.0). Student's t test was used for statistical analysis.

Test [2] deals with bovine taste receptor cell membranes (taste receptors) with transducin. Put plainly: G protein activation assay (trypsin sensitivity): activation of transducin by bitter tastant plus taste membranes. The test is classed as biochemical, Bovine (Bos primigenius). The source says: Taste receptor is contacted with gustducin or transducin and tastant, in the presence or absence of test inhibitor, under conditions suitable for activation of the G-protein present. […] In specific non-limiting embodiments, a subunits of transducin or gustducin may be combined with βγ subunits prior to this step, as set forth above. To the reaction mixture comprising taste receptors and gustducin or transducin, test inhibitor and/or bitter tastant may be added, and the resulting solution incubated to permit interaction of the elements.
In preferred embodiments, activation is assessed by a trypsin digestion assay. […] In a specific, non-limiting example, to perform a trypsin digestion assay according to the invention, TPCK-treated trypsin (1:25 trypsin to total protein in the reaction mixture) may be added, and the digestion may be performed at room temperature for about 15 minutes and stopped by adding soybean trypsin inhibitor (6:1 mol/mol inhibitor to trypsin). […] The separated polypeptides may then be transferred by electro-blotter to a poly (vinylidene difluoride) membrane blocked by the addition of 5% BLOTTO [50 mM Tris-HCI, pH 7.4/100 mM NaCl/5% nonfat dry milk], (30 min). G-protein peptides may then be visualized by binding of antibody directed toward transducin or gustducin, followed, for example, by binding of a detectably labeled secondary antibody. If a horseradish peroxidase-labeled secondary antibody is used, binding may be visualized by developing with bicinchoninic acid staining reagents and exposure to x-ray film.
G Protein Activation Assays. Bovine (Bos primigenius) tongues were collected fresh from a local slaughterhouse and transported on ice to the laboratory. Circumvallate papillae were hand dissected, frozen in liquid nitrogen, and stored at −80° C. until use. […] The pelleted membranes were rinsed twice, resuspended in homogenization buffer lacking protease inhibitors, and further homogenized by 20 passages through a 25-gauge needle. Aliquots were either flash frozen or stored on ice until use. […] The separated polypeptides were transferred by electro-blotter to a poly (vinylidene difluoride) membrane, which was blocked by the addition of 5% BLOTTO [50 mM Tris-HCI, pH 7.4/100 mM NaCl/5% nonfat dry milk], (30 min), then transducin peptides were visualized by binding of transducin antiserum and horseradish peroxidase-labeled goat anti-rabbit secondary antibody, followed by developing with bicinchoninic acid staining reagents from Bio-Rad and exposure to x-ray film.
Chemicals. All bitter tastant and buffer chemicals were of the highest purity available and were purchased either from Sigma or Boehringer Mannheim, unless otherwise noted. […] The rabbit polyclonal antitransducin antibody was a kind gift of Mel Simon and John Watson (California Institute of Technology, Pasadena, Calif.).

Each structure is given as a SMILES string. “Also recorded” adds a separate entry of the source.

Regarding `Nc1nc2c(ncn2[C@@H]2O[C@H](COP(=O)(O)O)[C@@H](O)[C@H]2O)c(=O)[nH]1` [GMP, reference compound], the “inhibition of glossopharyngeal nerve responses to atropine” value in test [1] (1.0 mM ATR, FIGS. 4A-C) is given as “had no effect”. Also, the “inhibition of glossopharyngeal nerve responses to sparteine” value in test [1] (1.0 mM SPA, FIGS. 4A-C, 4I (P<0.001)) is listed as “had no effect”. In addition, in test [1] (1.0 mM STR, FIGS. 4A-C), the “inhibition of glossopharyngeal nerve responses to strychnine” value is recorded as “had no effect”. In test [1] (5.0 mM DEN, FIGS. 4A-C), the “inhibition of glossopharyngeal nerve responses to DEN” value is given as “had no effect”. Also, in test [1] (QUI 0.1 and 1.0 mM, FIGS. 4D-F), the “inhibition of glossopharyngeal nerve responses to QUI” value is “had no effect”. Further, the “inhibition of in vitro activation of transducin (G-protein) by taste membranes plus bitter compounds, summary statement” value in test [2] (DEN, QUI and other bitter compounds, concentrations not given) was “did not”. The “inhibition of taste membrane activation of transducin in response to other bitter tastants (than DEN)” value in test [2] (concentrations not given) is “did not inhibit”. For the same molecule, the “inhibition of activation of transducin by DEN plus bovine taste receptor membranes” value in test [2] (inhibitor 0.25, 0.5, 1.25, 2.5, 5.0 mM, DEN 5.0 mM, shift from 32-kDa to 23-kDa fragments, FIG. 1A/1E) was “does not inhibit; also recorded: did not inhibit”.
